In patent US5798357A, “Agent for prophylaxis and treatment of thromboxane A2 -mediated diseases” (The Green Cross Corporation, priority 1994, dated 1998) one finds IC50 and LD50 data, which are given here for three compounds.

Counter-ions that a name gives are not always drawn. Like-named read-outs stand apart in the source and are kept apart here. Some results are limits rather than exact numbers.

By LD50 is commonly meant the dose expected to kill half of the subjects tested.

Series [1] addresses T1, TXA2 synthetase (Oryctolagus cuniculus, UniProt G1TAZ9).
T1 construct: to prepare a microsomal fraction; from tissue; host or cells: rabbit blood platelets, microsomal fraction
T1 sequence (G1TAZ9 1-530): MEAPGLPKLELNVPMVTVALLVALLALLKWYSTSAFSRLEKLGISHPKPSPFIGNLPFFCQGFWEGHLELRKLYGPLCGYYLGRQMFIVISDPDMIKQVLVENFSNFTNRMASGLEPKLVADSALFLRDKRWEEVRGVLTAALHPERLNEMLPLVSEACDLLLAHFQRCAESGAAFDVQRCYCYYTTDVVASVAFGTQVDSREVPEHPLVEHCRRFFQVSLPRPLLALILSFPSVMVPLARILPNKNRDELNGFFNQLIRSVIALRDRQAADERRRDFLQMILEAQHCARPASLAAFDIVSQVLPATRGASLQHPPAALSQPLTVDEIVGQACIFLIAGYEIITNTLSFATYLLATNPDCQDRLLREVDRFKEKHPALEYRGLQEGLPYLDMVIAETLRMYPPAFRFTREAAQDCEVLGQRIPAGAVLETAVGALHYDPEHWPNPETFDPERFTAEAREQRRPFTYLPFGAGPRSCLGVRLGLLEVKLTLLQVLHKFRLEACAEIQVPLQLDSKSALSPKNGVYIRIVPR
Description: Inhibition of TXA2 synthetase using rabbit platelet microsome. The format is biochemical. The note with it: PGH2 5 nmol, 22° C., 3 minutes, measured as TXB2 by EIA, read-out: TXA2 synthetase inhibitory action: amount necessary for 50% inhibition of TXA2 synthesis. The procedure:
Inhibition of TXA2 synthetase using rabbit platelet microsome
Blood was taken from the carotid artery of normal rabbit, using EDTA (77 mM EDTA, 1/10 vol). The blood was centrifuged at 1300 rpm for 10 minutes and platelet rich plasma in the supernatant was recovered, which was centrifuged at 3400 rpm for 15 minutes. The sediment was washed with physiological saline (original volume) and centrifuged at 3400 rpm for 15 minutes. Then, 0.05M Tris-HCl buffer (1 mM EDTA, pH 7.5, 3-fold weight of the wet weight of platelets) was added to the sediment and the mixture was homogenated (2 minutes, full speed) using polytron. The homogenate was centrifuged at 8300 rpm for 15 minutes (Tomy RD-20III, No. 3N) and the supernatant was centrifuged at […] for 1 hour (Beckman TL-100, TLA100.3). The sediment was suspended in 0.05M Tris-HCl buffer (1 mM EDTA, pH 7.5, one-third weight of the wet weight of platelets) to prepare a microsomal fraction. The fraction was stored at -80° C. until used for the experiment.
0.05M Tris-HCl buffer (pH 7.5, 890 μl), 100 μl of the above-mentionedmicrosome (85 μg protein) and 100% DMSO or the reagent (Compound A, 5 μl) were added and the mixture was preincubated at 22° C. for 3 minutes. […]
The TXA2 amount in the above Experimental Examples was measured as TXB2 (stable compound thereof) amount by the EIA method using TXB2 assay kit (manufactured by Amersham). […]

A further series is described as follows: acute toxicity in rats. To be noted: rat, in vivo, po, orally administered.
For a further series, the system named is rabbit platelets. Description: TXA2 release from rabbit platelets. The series is classed as cell-based. To be noted: Oryctolagus cuniculus, Platelet, 8 min, washed rabbit platelets, 37° C., read-out: TXA2 release suppressing action: amount necessary for 50% inhibition of TXA2 release. As for the experimental part: TXA2 release from rabbit platelets Blood was taken from the carotid artery of normal rabbit using ethylenediaminetetraacetic acid (EDTA; 77 mM EDTA, 1/10 vol). The blood was centrifuged at 1800 rpm for 8 minutes and platelet rich plasma in the supernatant was recovered, which was then centrifuged at 3200 rpm for 8 minutes. The sediment (platelet) was washed with Tyrode-HEPES-EDTA buffer and centrifuged at 3200 rpm for 8 minutes. The sediment was suspended in Tyrode-HEPES buffer to prepare washed platelets (5×10^8 platelets/ml). 100% DMSO or a reagent (Compound A, 1.5 μl) was added to the washed platelets (270 μl) and the mixture was heated at 37° C. for 2 minutes. Then, collagen (10 μg/ml) and 1 mM Ca^2+ (or 1 mM Ca^2+ alone when investigating release from unstimulated platelets) were added and the experiment was started. After heating at 37° C. for 8 minutes, 10^-3 M indomethacin was added and the cuvette was placed in ice to stop the reaction. After centrifugation at 10,000 rpm for 10 minutes, the supernatant was taken and stored at -20° C. until used for the TXA2 determination. The TXA2 amount in the above Experimental Examples was measured as TXB2 (stable compound thereof) amount by the EIA method using TXB2 assay kit (manufactured by Amersham). | *1: amount necessary for 50% inhibition of TXA2 release (μM)

In series [2] the target is T2, TXA2 synthetase (Homo sapiens, UniProt P24557).
T2 construct: human platelet microsome was used; from tissue; host or cells: human blood platelets, microsomal fraction
T2 sequence (P24557 1-533): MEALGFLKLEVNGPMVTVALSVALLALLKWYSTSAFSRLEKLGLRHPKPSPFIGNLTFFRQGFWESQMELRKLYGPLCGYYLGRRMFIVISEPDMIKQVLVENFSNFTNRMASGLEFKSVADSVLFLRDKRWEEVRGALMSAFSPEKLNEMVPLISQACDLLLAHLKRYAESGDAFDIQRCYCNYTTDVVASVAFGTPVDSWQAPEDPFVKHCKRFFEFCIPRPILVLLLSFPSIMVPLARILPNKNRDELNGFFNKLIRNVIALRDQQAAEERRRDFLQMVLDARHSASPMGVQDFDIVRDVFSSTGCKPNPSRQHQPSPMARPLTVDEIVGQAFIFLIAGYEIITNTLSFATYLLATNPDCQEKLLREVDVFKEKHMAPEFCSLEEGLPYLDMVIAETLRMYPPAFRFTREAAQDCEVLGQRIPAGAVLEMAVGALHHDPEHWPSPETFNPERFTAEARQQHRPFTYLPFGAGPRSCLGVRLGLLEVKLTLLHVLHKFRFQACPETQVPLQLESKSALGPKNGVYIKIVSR
The series can be described thus: inhibition of TXA2 synthetase by the use of human platelet microsome. The note with it: read-out: IC50 (amount necessary to inhibit 50% of TXA2 synthesis) of TXA2 synthetase inhibitory action. The series is classed as biochemical. As for the experimental part:
The TXA2 amount in the above Experimental Examples was measured as TXB2 (stable compound thereof) amount by the EIA method using TXB2 assay kit (manufactured by Amersham). inhibition of TXA2 synthetase by the use of human platelet microsome In the same manner as in Experimental Example 2 except that human platelet microsome was used instead of rabbit platelet microsome, the experiment was performed. Compound A, Compound B and Compound C were used as reagents.

The next series can be described thus: acute toxicity in dogs. To be noted: dog, in vivo, po, orally administered.

Take `Cl.O=c1[nH]nc(OCCCc2ccc(Cl)cc2)c(NCc2cccnc2)c1Br` [Compound A, 4-bromo-6-[3-(4-chlorophenyl)propoxy]-5-(3-pyridylmethylamino)-3(2H)-pyridazinone hydrochloride]: the IC50 at TXA2 synthetase [1] came to 0.018 µM; in the series on rabbit platelets (not stimulated, 1 mM Ca2+ alone), 1 µM; in the series with rabbit platelets (stimulated with collagen (10 μg/ml), 1 mM Ca2+), 0.009 µM; at TXA2 synthetase [2] it was 0.01 µM. Also, the LD50 in “acute toxicity in rats” and in the series “acute toxicity in dogs” was at least 2000 mg/kg in each case.
`O=c1[nH]nc(OCC[C@H](O)c2ccc(Cl)cc2)c(NCc2cccnc2)c1Br` [Compound B, 4-bromo-6-[(3S)-(4-chlorophenyl)-3-hydroxypropoxy]-5-(3-pyridylmethylamino)-3(2H)-pyridazinone hydrochloride]: the IC50 on TXA2 synthetase [2] was determined as 0.02 µM.
Still for that read-out and setting: as for `O=c1[nH]nc(OCC[C@@H](O)c2ccc(Cl)cc2)c(NCc2cccnc2)c1Br` [Compound C, 4-bromo-6-[(3R)-(4-chlorophenyl)-3-hydroxypropoxy]-5-(3-pyridylmethylamino)-3(2H)-pyridazinone hydrochloride], the figure is 0.03 µM.
